# According to patent US10563263B2, “Genetic polymorphisms associated with statin response and cardiovascular diseases, methods of detection and uses thereof” (CELERA CORPORATION, priority 2010, dated 2020):
# Tested on: revascularization, unstable angina requiring hospitalization, MI, all causes of death, or stroke
# Assay: PROVE IT-TIMI 22: SNP by treatment interaction (high-dose atorvastatin vs standard-dose pravastatin), logistic regression (synergy index), primary composite endpoint
# Format: in vivo, human
# Settings: for OR: PROVEIT
smiles,measurement,setting,value
"CC(C)c1c(C(=O)Nc2ccccc2)c(-c2ccccc2)c(-c2ccc(F)cc2)n1CC[C@@H](O)C[C@@H](O)CC(=O)O [Atorvastatin, atorvastatin]",OR,"marker rs13129010, caseonly, model dom, End-point CHD, atorvastatin vs pravastatin",1.39
same,OR,"marker rs13150189, caseonly, model dom, End-point CVD, atorvastatin vs pravastatin",1.36
same,OR,"marker rs16934059, cohort, model dom, End-point CHD, atorvastatin vs pravastatin",0.65
same,OR,"marker rs17002013, cohort, model dom, End-point CVD, atorvastatin vs pravastatin",1.38
same,OR,"marker rs17688430, caseonly, model add, End-point CVD, atorvastatin vs pravastatin",0.77
same,OR,"marker rs17821383, caseonly, model rec, End-point CHD, atorvastatin vs pravastatin",0.35
same,OR,"rs4773, caseonly, dom, CVD",0.68
same,OR,"rs475420, caseonly, dom, CVD",1.57
same,OR,"rs1045916, caseonly, add, CHD",0.79
same,OR,"rs7067780, caseonly, dom, CVD",1.41
same,OR,"rs9906737, caseonly, dom, CHD",0.53
same,OR,"rs17644708, caseonly, rec, CVD",0.34
same,OR (SNP x treatment interaction),"rs742827, allele A, ADD, Imputed, atorvastatin vs pravastatin",1.396
same,OR (SNP x treatment interaction),"rs879961, allele T, ADD, Imputed, atorvastatin vs pravastatin",1.178
same,OR (SNP x treatment interaction),"rs906353, allele A, DOM, Imputed, atorvastatin vs pravastatin",1.22
same,OR (SNP x treatment interaction),"rs915491, allele C, DOM, Imputed, atorvastatin vs pravastatin",1.329
same,OR (SNP x treatment interaction),"rs915493, allele T, DOM, Imputed, atorvastatin vs pravastatin",1.329
same,OR (SNP x treatment interaction),"rs915494, allele A, ADD, Imputed, atorvastatin vs pravastatin",1.399
same,OR (SNP x treatment interaction),"rs915494, allele A, DOM, Imputed, atorvastatin vs pravastatin",1.486
same,OR (SNP x treatment interaction),"rs917295, allele G, DOM, Imputed, atorvastatin vs pravastatin",0.5934
same,OR (SNP x treatment interaction),"rs966583, allele A, ADD, Imputed, atorvastatin vs pravastatin",0.7596
same,OR (SNP x treatment interaction),"rs966583, allele A, DOM, Imputed, atorvastatin vs pravastatin",0.6781
same,OR (SNP x treatment interaction),"rs7180245, allele A, REC, Imputed, atorvastatin vs pravastatin",1.965
same,OR (SNP x treatment interaction),"rs7283476, allele T, ADD, Imputed, atorvastatin vs pravastatin",0.413
same,OR (SNP x treatment interaction),"rs7283476, allele T, DOM, Imputed, atorvastatin vs pravastatin",0.3545
same,OR (SNP x treatment interaction),"rs7298255, allele A, ADD, Imputed, atorvastatin vs pravastatin",0.7433
same,OR (SNP x treatment interaction),"rs7298255, allele A, DOM, Imputed, atorvastatin vs pravastatin",0.74
same,OR (SNP x treatment interaction),"rs7392620, allele C, ADD, Imputed, atorvastatin vs pravastatin",0.6521
same,OR (SNP x treatment interaction),"rs7446891, allele G, DOM, Imputed, atorvastatin vs pravastatin",0.5934
same,OR (SNP x treatment interaction),"rs7448641, allele C, ADD, Imputed, atorvastatin vs pravastatin",0.9741
same,OR (SNP x treatment interaction),"rs7448641, allele C, DOM, Imputed, atorvastatin vs pravastatin",1.136
same,OR (SNP x treatment interaction),"rs7499402, allele A, ADD, Genotyped, atorvastatin vs pravastatin",2.08
same,OR (SNP x treatment interaction),"rs7529851, allele A, ADD, Imputed, atorvastatin vs pravastatin",0.7324
same,OR (SNP x treatment interaction),"rs7573951, allele G, ADD, Imputed, atorvastatin vs pravastatin",1.009
same,OR (SNP x treatment interaction),"rs7599198, allele T, DOM, Imputed, atorvastatin vs pravastatin",0.9895
same,OR (SNP x treatment interaction),"rs7607712, allele T, ADD, Imputed, atorvastatin vs pravastatin",1.357
same,OR (SNP x treatment interaction),"rs7607712, allele T, DOM, Imputed, atorvastatin vs pravastatin",1.496
same,OR (SNP x treatment interaction),"rs7621663, allele G, REC, Imputed, atorvastatin vs pravastatin",0.8874
same,OR (SNP x treatment interaction),"rs7626584, allele G, ADD, Imputed, atorvastatin vs pravastatin",0.6617
same,OR (SNP x treatment interaction),"rs7684899, allele C, ADD, Imputed, atorvastatin vs pravastatin",0.617
same,OR (SNP x treatment interaction),"rs7684899, allele C, DOM, Imputed, atorvastatin vs pravastatin",0.5176
same,OR (SNP x treatment interaction),"rs7701604, allele G, ADD, Imputed, atorvastatin vs pravastatin",0.9741
same,OR (SNP x treatment interaction),"rs7701604, allele G, DOM, Imputed, atorvastatin vs pravastatin",1.136
same,OR (SNP x treatment interaction),"rs7703676, allele C, ADD, Imputed, atorvastatin vs pravastatin",0.9741
same,OR (SNP x treatment interaction),"rs7703676, allele C, DOM, Imputed, atorvastatin vs pravastatin",1.136
same,OR (SNP x treatment interaction),"rs7708491, allele C, REC, Imputed, atorvastatin vs pravastatin",1.179
same,OR (SNP x treatment interaction),"rs7711358, allele A, DOM, Imputed, atorvastatin vs pravastatin",0.593
same,OR (SNP x treatment interaction),"rs7724761, allele T, REC, Imputed, atorvastatin vs pravastatin",1.207
same,OR (SNP x treatment interaction),"rs7762993, allele A, ADD, Imputed, atorvastatin vs pravastatin",1.066
same,OR (SNP x treatment interaction),"rs7762993, allele A, DOM, Imputed, atorvastatin vs pravastatin",1.079
same,OR (SNP x treatment interaction),"rs7767265, allele G, ADD, Imputed, atorvastatin vs pravastatin",1.18
same,OR (SNP x treatment interaction),"rs7768128, allele G, REC, Imputed, atorvastatin vs pravastatin",0.3066
same,OR (SNP x treatment interaction),"rs7773151, allele C, DOM, Genotyped, atorvastatin vs pravastatin",1.038
same,OR (SNP x treatment interaction),"rs7773210, allele A, DOM, Genotyped, atorvastatin vs pravastatin",1.038
same,OR (SNP x treatment interaction),"rs7843510, allele G, DOM, Genotyped, atorvastatin vs pravastatin",0.9929
same,OR (SNP x treatment interaction),"rs7939893, allele C, ADD, Imputed, atorvastatin vs pravastatin",0.6916
same,OR (SNP x treatment interaction),"rs7939893, allele C, DOM, Imputed, atorvastatin vs pravastatin",0.506
same,OR (SNP x treatment interaction),"rs7944513, allele T, REC, Imputed, atorvastatin vs pravastatin",1.787
same,OR (SNP x treatment interaction),"rs7949720, allele G, ADD, Imputed, atorvastatin vs pravastatin",1.485
same,OR (SNP x treatment interaction),"rs7949720, allele G, DOM, Imputed, atorvastatin vs pravastatin",1.52
same,OR (SNP x treatment interaction),"rs7955901, allele C, ADD, Imputed, atorvastatin vs pravastatin",0.7285
same,OR (SNP x treatment interaction),"rs7955901, allele C, DOM, Imputed, atorvastatin vs pravastatin",0.7139
same,OR (SNP x treatment interaction),"rs7956274, allele T, ADD, Imputed, atorvastatin vs pravastatin",0.7156
same,OR (SNP x treatment interaction),"rs7956274, allele T, DOM, Imputed, atorvastatin vs pravastatin",0.7031
same,OR (SNP x treatment interaction),"rs7957932, allele G, ADD, Imputed, atorvastatin vs pravastatin",0.7234
same,OR (SNP x treatment interaction),"rs7957932, allele G, DOM, Imputed, atorvastatin vs pravastatin",0.6888
same,OR (SNP x treatment interaction),"rs7999518, allele A, REC, Imputed, atorvastatin vs pravastatin",0.4462
same,OR (SNP x treatment interaction),"rs8026245, allele G, REC, Imputed, atorvastatin vs pravastatin",1.888
same,OR (SNP x treatment interaction),"rs8060725, allele A, ADD, Genotyped, atorvastatin vs pravastatin",0.6772
same,OR (SNP x treatment interaction),"rs8103016, allele A, ADD, Genotyped, atorvastatin vs pravastatin",1.223
same,OR (SNP x treatment interaction),"rs8104182, allele G, ADD, Imputed, atorvastatin vs pravastatin",1.298
same,OR (SNP x treatment interaction),"rs8104182, allele G, DOM, Imputed, atorvastatin vs pravastatin",1.4
same,OR (SNP x treatment interaction),"rs8129461, allele G, ADD, Imputed, atorvastatin vs pravastatin",0.3726
same,OR (SNP x treatment interaction),"rs8129461, allele G, DOM, Imputed, atorvastatin vs pravastatin",0.3187
same,OR (SNP x treatment interaction),"rs8130021, allele G, ADD, Imputed, atorvastatin vs pravastatin",0.4152
same,OR (SNP x treatment interaction),"rs8130021, allele G, DOM, Imputed, atorvastatin vs pravastatin",0.3565
same,OR (SNP x treatment interaction),"rs9293464, allele T, REC, Imputed, atorvastatin vs pravastatin",1.207
same,OR (SNP x treatment interaction),"rs9295154, allele G, DOM, Genotyped, atorvastatin vs pravastatin",1.463
same,OR (SNP x treatment interaction),"rs9310221, allele A, DOM, Imputed, atorvastatin vs pravastatin",0.8966
same,OR (SNP x treatment interaction),"rs9327555, allele T, DOM, Imputed, atorvastatin vs pravastatin",0.5934
same,OR (SNP x treatment interaction),"rs9403367, allele C, DOM, Imputed, atorvastatin vs pravastatin",1.038
same,OR (SNP x treatment interaction),"rs9419608, allele G, REC, Imputed, atorvastatin vs pravastatin",0.5885
same,OR (SNP x treatment interaction),"rs9426437, allele T, DOM, Imputed, atorvastatin vs pravastatin",1.067
same,OR (SNP x treatment interaction),"rs9454967, allele G, DOM, Imputed, atorvastatin vs pravastatin",0.9744
same,OR (SNP x treatment interaction),"rs9635511, allele T, DOM, Imputed, atorvastatin vs pravastatin",0.8692
same,OR (SNP x treatment interaction),"rs9812206, allele G, ADD, Imputed, atorvastatin vs pravastatin",1.042
same,OR (SNP x treatment interaction),"rs9812206, allele G, DOM, Imputed, atorvastatin vs pravastatin",1.042
same,OR (SNP x treatment interaction),"rs9813552, allele G, ADD, Imputed, atorvastatin vs pravastatin",1.042
same,OR (SNP x treatment interaction),"rs9813552, allele G, DOM, Imputed, atorvastatin vs pravastatin",1.077
same,OR (SNP x treatment interaction),"rs9815037, allele T, DOM, Imputed, atorvastatin vs pravastatin",1.083
same,OR (SNP x treatment interaction),"rs9825349, allele A, DOM, Imputed, atorvastatin vs pravastatin",1.083
same,OR (SNP x treatment interaction),"rs9840756, allele A, ADD, Imputed, atorvastatin vs pravastatin",0.9995
same,OR (SNP x treatment interaction),"rs9840756, allele A, DOM, Imputed, atorvastatin vs pravastatin",1.031
